The values below are quoted from earlier work in US20100021879A1, “COMPOSITIONS AND METHODS FOR PRESERVING RED BLOOD CELLS” (THE REGENTS OF THE UNIVERSITY OF MICHIGAN, priority 2007, published 2010).

One data set has as its system erythrocyte. Conditions: prior to hemolysis.

For `CC[N+](CC)(CC)CC` [TEA], the “red blood cell deformability” value in the data set with red blood cells is “increased deformability”.
Consider `OCl` [hypochlorous acid], for which, in the data set on erythrocyte, the K leak entry is recorded as “increase in K leak” and the “erythrocyte deformability evidenced by ektacytometry” value is “changes in erythrocyte deformability”.
